Test results reported in patent US10988477B2 (Merck Patent GmbH, priority 2018, dated 2021).

Experiments:
GCN2 kinase = GCN2 kinase (Homo sapiens, UniProt Q9P2K8); experiment: GCN2 enzyme inhibition assay (Transcreener ADP2 fluorescence polarization); assay type: biochemical; conditions: compounds of Formula II; 280 μM ATP, 4 nM GCN2 kinase
In short: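 4 nM GCN2 + 200 μM (RS)7 + compound (0–8 μM), 10 min preinc.; start with ATP (280 μM final); 1 h, 25 °C; pH 7.5 Tris/NaCl/MgCl2/DTT; ADP FP readout; IC50, Ki(app) via tight-binding fit.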

[1] = biological target: intracellular GCN2 (phosphorylation of the GCN2 substrate eIF2α) (Homo sapiens, UniProt Q9P2K8); experiment: GCN2 cellular inhibition assay (AlphaScreen SureFire P-eIF2α Ser51, borrelidin-treated U2OS cells); assay type: cell-based; conditions: compounds of Formula II; biomarker assay, phosphorylated eIF2α Ser51 in borrelidin-treated U2OS cells
Sequence of intracellular GCN2 (phosphorylation of the GCN2 substrate eIF2α) (Q9P2K8 whole entry): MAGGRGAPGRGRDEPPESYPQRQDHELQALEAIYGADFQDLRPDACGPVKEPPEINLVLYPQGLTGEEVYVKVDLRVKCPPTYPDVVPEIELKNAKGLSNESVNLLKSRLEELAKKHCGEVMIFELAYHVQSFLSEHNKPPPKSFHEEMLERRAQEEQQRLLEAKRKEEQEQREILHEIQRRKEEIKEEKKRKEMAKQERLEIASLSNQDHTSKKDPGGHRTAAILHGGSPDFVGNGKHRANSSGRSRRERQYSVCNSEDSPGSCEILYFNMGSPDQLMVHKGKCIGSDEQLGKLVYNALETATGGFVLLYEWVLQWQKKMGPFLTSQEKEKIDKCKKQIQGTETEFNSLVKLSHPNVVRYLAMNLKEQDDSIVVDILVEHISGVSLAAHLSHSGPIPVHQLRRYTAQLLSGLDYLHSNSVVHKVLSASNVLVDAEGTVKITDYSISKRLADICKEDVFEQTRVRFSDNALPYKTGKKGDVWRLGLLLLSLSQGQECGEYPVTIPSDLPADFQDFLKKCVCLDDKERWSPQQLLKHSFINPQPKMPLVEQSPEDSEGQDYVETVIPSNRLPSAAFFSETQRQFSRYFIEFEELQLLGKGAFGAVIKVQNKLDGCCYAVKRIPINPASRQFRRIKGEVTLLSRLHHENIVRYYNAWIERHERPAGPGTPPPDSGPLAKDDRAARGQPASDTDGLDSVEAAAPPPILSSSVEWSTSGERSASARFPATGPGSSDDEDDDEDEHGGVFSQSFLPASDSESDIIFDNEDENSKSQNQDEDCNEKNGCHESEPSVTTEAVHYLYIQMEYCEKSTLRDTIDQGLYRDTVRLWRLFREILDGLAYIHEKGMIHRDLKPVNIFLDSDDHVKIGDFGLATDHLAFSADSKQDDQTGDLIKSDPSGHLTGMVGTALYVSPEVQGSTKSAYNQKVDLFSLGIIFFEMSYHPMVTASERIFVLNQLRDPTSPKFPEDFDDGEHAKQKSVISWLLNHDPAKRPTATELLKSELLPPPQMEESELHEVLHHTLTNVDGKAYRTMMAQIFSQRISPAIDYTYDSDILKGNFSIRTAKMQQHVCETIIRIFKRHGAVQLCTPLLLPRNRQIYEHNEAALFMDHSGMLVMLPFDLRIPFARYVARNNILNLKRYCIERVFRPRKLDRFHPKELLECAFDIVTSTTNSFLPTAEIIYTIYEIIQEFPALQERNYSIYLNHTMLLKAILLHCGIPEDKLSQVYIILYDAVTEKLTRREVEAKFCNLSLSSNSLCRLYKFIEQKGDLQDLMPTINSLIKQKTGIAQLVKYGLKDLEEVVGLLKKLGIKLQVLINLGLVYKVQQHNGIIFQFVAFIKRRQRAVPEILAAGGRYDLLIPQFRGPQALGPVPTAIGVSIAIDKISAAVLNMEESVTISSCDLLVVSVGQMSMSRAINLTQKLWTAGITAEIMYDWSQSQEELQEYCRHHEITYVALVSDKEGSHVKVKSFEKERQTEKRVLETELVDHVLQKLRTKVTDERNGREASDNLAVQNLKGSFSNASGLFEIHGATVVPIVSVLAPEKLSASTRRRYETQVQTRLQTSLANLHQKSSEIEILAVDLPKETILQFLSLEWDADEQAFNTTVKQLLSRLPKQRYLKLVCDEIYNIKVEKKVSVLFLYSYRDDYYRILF
In short: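 Borrelidin at 10 μM is added to U2OS cells immediately after compound (4-fold dilution series, 40 μM top final) for 1 h at 37 °C. Phosphorylated eIF2α Ser51 in lysates is quantified by AlphaScreen and expressed as percent inhibition against borrelidin-stimulated controls.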

Sequence of GCN2 kinase (Q9P2K8 whole entry): as above

Row | SMILES | Ki (GCN2 kinase) [nM] | IC50 [1] [nM]
1 | CC1C(CNS(C)(=O)=O)OCCN1c1cc(-c2cnc3ccc(C(F)F)nn23)ncn1 (single isomer, unassigned) [II-372, N-((4-(6-(6-(Difluoromethyl)imidazo[1,2-b]pyridazin-3-yl)pyrimidin-4-yl)-3-methylmorpholin-2-yl)methyl)methanesulfonamide] | > 1000 | > 5000
2 | C[C@H]1[C@@H](CO)CCCN1c1cc(-c2cnc3ccc(C(F)F)nn23)ncn1 (single isomer, unassigned) [II-392] | 10 to 1000 | 500 to 5000
3 | CC1C(CO)CCCN1c1cc(-c2cnc3ccc(C(F)F)nn23)ncn1 (single isomer, unassigned) [II-393, (1-(6-(6-(Difluoromethyl)imidazo[1,2-b]pyridazin-3-yl)pyrimidin-4-yl)-2-methylpiperidin-3-yl)methanol] | 10 to 1000 | > 5000
4 | CS(=O)(=O)N[C@H]1CCCN(c2cc(-c3cnc4ccc(C(F)F)nn34)ncn2)C1 (single isomer, unassigned) [II-404] | 10 to 1000 | 500 to 5000
5 | CS(=O)(=O)N[C@@H]1CCCN(c2cc(-c3cnc4ccc(C(F)F)nn34)ncn2)C1 (single isomer, unassigned) [II-405] | 10 to 1000 | 500 to 5000
6 | CC1C(CO)OCCN1c1cc(-c2cnc3ccc(C(F)F)nn23)ncn1 (single isomer, unassigned) [II-413, (4-(6-(6-(Difluoromethyl)imidazo[1,2-b]pyridazin-3-yl)pyrimidin-4-yl)-3-methylmorpholin-2-yl)methanol] | > 1000 | > 5000
7 | CC1C(CO)OCCN1c1cc(-c2cnc3ccc(C(F)F)nn23)ncn1 (single isomer, unassigned) [II-414, (4-(6-(6-(Difluoromethyl)imidazo[1,2-b]pyridazin-3-yl)pyrimidin-4-yl)-3-methylmorpholin-2-yl)methanol] | 10 to 1000 | > 5000
8 | CCC1C(CNS(C)(=O)=O)CCCN1c1cc(-c2cnc3ccc(C(F)F)nn23)ncn1 (single isomer, unassigned) [II-417] | 10 to 1000 | 500 to 5000
9 | CC1CC(CNS(C)(=O)=O)CN(c2cc(-c3cnc4ccc(C(F)F)nn34)ncn2)C1 (single isomer, unassigned) [II-436, N-((1-(6-(6-(Difluoromethyl)imidazo[1,2-b]pyridazin-3-yl)pyrimidin-4-yl)-5-methylpiperidin-3-yl)methyl)methanesulfonamide] | 10 to 1000 | 500 to 5000
10 | CC1C(CNS(C)(=O)=O)C(F)(F)C(C)CN1c1cc(-c2cnc3ccc(C(F)F)nn23)ncn1 (single isomer, unassigned) [II-469, N-((1-(6-(6-(Difluoromethyl)imidazo[1,2-b]pyridazin-3-yl)pyrimidin-4-yl)-4,4-difluoro-2,5-dimethylpiperidin-3-yl)methyl)methanesulfonamide] | 10 to 1000 | 500 to 5000
11 | CC1C(CNS(C)(=O)=O)C(F)(F)C(C)CN1c1cc(-c2cnc3ccc(C(F)F)nn23)ncn1 (single isomer, unassigned) [II-470, N-((1-(6-(6-(Difluoromethyl)imidazo[1,2-b]pyridazin-3-yl)pyrimidin-4-yl)-4,4-difluoro-2,5-dimethylpiperidin-3-yl)methyl)methanesulfonamide] | 10 to 1000 | 500 to 5000
12 | CC1C(CNS(C)(=O)=O)C(F)(F)C(C)CN1c1cc(-c2cnc3ccc(C(F)F)nn23)ncn1 (single isomer, unassigned) [II-471, N-((1-(6-(6-(Difluoromethyl)imidazo[1,2-b]pyridazin-3-yl)pyrimidin-4-yl)-4,4-difluoro-2,5-dimethylpiperidin-3-yl)methyl)methanesulfonamide] | 10 to 1000 | > 5000
13 | CC1C(CNS(C)(=O)=O)N(C2CC2)CCN1c1cc(-c2cnc3ccc(C(F)F)nn23)ncn1 (single isomer, unassigned) [II-478, N-((1-Cyclopropyl-4-(6-(6-(difluoromethyl)imidazo[1,2-b]pyridazin-3-yl)pyrimidin-4-yl)-3-methylpiperazin-2-yl)methyl)methanesulfonamide] | 10 to 1000 | 500 to 5000
14 | CC1C(CNS(C)(=O)=O)OC(C)(C)CN1c1cc(-c2cnc3ccc(C(F)F)nn23)ncn1 (single isomer, unassigned) [II-484, N-((4-(6-(6-(Difluoromethyl)imidazo[1,2-b]pyridazin-3-yl)pyrimidin-4-yl)-3,6,6-trimethylmorpholin-2-yl)methyl)methanesulfonamide] | 10 to 1000 | 500 to 5000
15 | CC1C(CNS(C)(=O)=O)OC(C)(C)CN1c1cc(-c2cnc3ccc(C(F)F)nn23)ncn1 (single isomer, unassigned) [II-489, N-((4-(6-(6-(Difluoromethyl)imidazo[1,2-b]pyridazin-3-yl)pyrimidin-4-yl)-3,6,6-trimethylmorpholin-2-yl)methyl)methanesulfonamide] | > 1000 | > 5000
16 | CS(C)(=O)=N[C@H]1CCCN(c2cc(-c3cnc4ccc(C(F)F)nn34)ncn2)C1 (single isomer, unassigned) [II-502] | 10 to 1000 | < 500
17 | CS(C)(=O)=NC1CCCN(c2cc(-c3cnc4ccc(C(F)F)nn34)ncn2)C1 (single isomer, unassigned) [II-503, ((1-(6-(6-(Difluoromethyl)imidazo[1,2-b]pyridazin-3-yl)pyrimidin-4-yl)piperidin-3-yl)imino)dimethyl-λ^6-sulfanone] | 10 to 1000 | 500 to 5000

More lines, now with the values ahead:

Row | Ki (GCN2 kinase) [nM] | IC50 [1] [nM] | SMILES
18 | 10 to 1000 | 500 to 5000 | CC1C(CNS(C)(=O)=O)CC(F)(F)CN1c1cc(-c2cnc3ccc(C(F)F)nn23)ncn1 (single isomer, unassigned) [II-360, N-((1-(6-(6-(Difluoromethyl)imidazo[1,2-b]pyridazin-3-yl)pyrimidin-4-yl)-5,5-difluoro-2-methylpiperidin-3-yl)methyl)methanesulfonamide]
19 | < 10 | < 500 | C[C@H]1[C@@H](CNS(C)(=O)=O)CC(F)(F)CN1c1cc(-c2cnc3ccc(C(F)F)nn23)ncn1 (single isomer, unassigned) [II-361]
20 | < 10 | < 500 | CC1C(CNS(C)(=O)=O)N(C)CCN1c1cc(-c2cnc3ccc(C(F)F)nn23)ncn1 (single isomer, unassigned) [II-364, N-((4-(6-(6-(difluoromethyl)imidazo[1,2-b]pyridazin-3-yl)pyrimidin-4-yl)-1,3-dimethylpiperazin-2-yl)methyl)methanesulfonamide]
21 | 10 to 1000 | 500 to 5000 | CC1C(NS(C)(=O)=O)CCCN1c1cc(-c2cnc3ccc(C(F)F)nn23)ncn1 (single isomer, unassigned) [II-374, N-[1-[6-[6-(Difluoromethyl)imidazo[1,2-b]pyridazin-3-yl]pyrimidin-4-yl]-2-methyl-3-piperidyl]methanesulfonamide]
22 | 10 to 1000 | < 500 | CC1C(NS(C)(=O)=O)CCCN1c1cc(-c2cnc3ccc(C(F)F)nn23)ncn1 (single isomer, unassigned) [II-377, N-[1-[6-[6-(Difluoromethyl)imidazo[1,2-b]pyridazin-3-yl]pyrimidin-4-yl]-2-methyl-3-piperidyl]methanesulfonamide]
23 | 10 to 1000 | 500 to 5000 | CC1(F)CCN(c2cc(-c3cnc4ccc(C(F)F)nn34)ncn2)CC1CNS(C)(=O)=O (single isomer, unassigned) [II-388, N-((1-(6-(6-(Difluoromethyl)imidazo[1,2-b]pyridazin-3-yl)pyrimidin-4-yl)-4-fluoro-4-methylpiperidin-3-yl)methyl)methanesulfonamide]
24 | 10 to 1000 | 500 to 5000 | CC1(F)CCN(c2cc(-c3cnc4ccc(C(F)F)nn34)ncn2)CC1CNS(C)(=O)=O (single isomer, unassigned) [II-389, N-((1-(6-(6-(Difluoromethyl)imidazo[1,2-b]pyridazin-3-yl)pyrimidin-4-yl)-4-fluoro-4-methylpiperidin-3-yl)methyl)methanesulfonamide]
25 | < 10 | < 500 | CCC1C(CNS(C)(=O)=O)CCCN1c1cc(-c2cnc3ccc(C(F)F)nn23)ncn1 (single isomer, unassigned) [II-416]
26 | < 10 | < 500 | CC1CC(CNS(C)(=O)=O)CN(c2cc(-c3cnc4ccc(C(F)F)nn34)ncn2)C1 (single isomer, unassigned) [II-437, N-((1-(6-(6-(Difluoromethyl)imidazo[1,2-b]pyridazin-3-yl)pyrimidin-4-yl)-5-methylpiperidin-3-yl)methyl)methanesulfonamide]
27 | < 10 | < 500 | C[C@H]1[C@@H](CNS(C)(=O)=O)C(F)(F)[C@@H](C)CN1c1cc(-c2cnc3ccc(C(F)F)nn23)ncn1 (single isomer, unassigned) [II-472]
28 | < 10 | < 500 | CC1C(CNS(C)(=O)=O)N(C2CC2)CCN1c1cc(-c2cnc3ccc(C(F)F)nn23)ncn1 (single isomer, unassigned) [II-479, N-((1-Cyclopropyl-4-(6-(6-(difluoromethyl)imidazo[1,2-b]pyridazin-3-yl)pyrimidin-4-yl)-3-methylpiperazin-2-yl)methyl)methanesulfonamide]
29 | < 10 | < 500 | C[C@H]1[C@@H](CNS(C)(=O)=O)OC(C)(C)CN1c1cc(-c2cnc3ccc(C(F)F)nn23)ncn1 (single isomer, unassigned) [II-490]
30 | < 10 | < 500 | C[C@H](NS(C)(=O)=O)[C@@H]1CN(c2cc(-c3cnc4ccc(C(F)F)nn34)ncn2)CCO1 (single isomer, unassigned) [II-509]
